ChEMBL document CHEMBL1201862, “PubChem BioAssay data set” (2004)
The source made the active and inactive calls.

Legend:
[1] = molecular target: T1, RNA-binding protein pos-1 (Caenorhabditis elegans, UniProt G5EF15); assay: disruptors of C. elegans POS-1 RNA interaction – biochemical, fluorescence polarization, dose response (AID 1964);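 also: purified POS-1 fused to maltose binding protein made in E. coli; potency of compounds blocking POS-1 binding to fluorescent RNA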
T1 sequence (G5EF15 whole entry): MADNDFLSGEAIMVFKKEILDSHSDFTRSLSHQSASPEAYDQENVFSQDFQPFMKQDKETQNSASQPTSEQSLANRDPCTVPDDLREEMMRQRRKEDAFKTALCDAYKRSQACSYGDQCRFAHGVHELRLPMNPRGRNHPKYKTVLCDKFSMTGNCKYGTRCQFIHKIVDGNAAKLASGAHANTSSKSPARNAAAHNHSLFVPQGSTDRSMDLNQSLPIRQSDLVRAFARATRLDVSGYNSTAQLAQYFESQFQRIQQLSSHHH

[2] = molecular target: T2, Zinc finger protein mex-5 (Caenorhabditis elegans, UniProt Q9XUB2); assay: potency of MEX-5 RNA-binding blockers – biochemical, C. elegans, fluorescence polarization, dose response (AID 1960)
T2 sequence (Q9XUB2 whole entry): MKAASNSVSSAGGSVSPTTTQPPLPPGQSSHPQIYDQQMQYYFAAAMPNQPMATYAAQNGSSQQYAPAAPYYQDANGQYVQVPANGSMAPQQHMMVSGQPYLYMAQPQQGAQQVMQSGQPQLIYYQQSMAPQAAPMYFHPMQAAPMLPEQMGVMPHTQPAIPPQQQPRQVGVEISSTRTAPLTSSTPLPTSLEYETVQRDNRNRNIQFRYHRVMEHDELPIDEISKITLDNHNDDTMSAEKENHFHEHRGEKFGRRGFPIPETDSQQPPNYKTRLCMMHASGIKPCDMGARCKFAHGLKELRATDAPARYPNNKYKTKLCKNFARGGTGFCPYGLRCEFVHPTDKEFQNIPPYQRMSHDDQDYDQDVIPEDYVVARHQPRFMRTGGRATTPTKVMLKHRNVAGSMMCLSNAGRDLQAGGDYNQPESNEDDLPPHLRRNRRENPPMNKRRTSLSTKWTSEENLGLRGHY

[3] = molecular target: T3, Heat shock factor protein 1 (Mus musculus, UniProt P38532); assay: decrease of HSF1-responsive luciferase luminescence – cell-based, NIH3T3, dose retest, confirmation (AID 2382); assay type: functional;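 also: NIH3T3 fibroblasts with HSF1-driven luciferase reporter stressed by proteasome inhibitor MG132; luminescence from HSF1-driven luciferase expression after 8 hours of MG132 stress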
T3 sequence (P38532 whole entry): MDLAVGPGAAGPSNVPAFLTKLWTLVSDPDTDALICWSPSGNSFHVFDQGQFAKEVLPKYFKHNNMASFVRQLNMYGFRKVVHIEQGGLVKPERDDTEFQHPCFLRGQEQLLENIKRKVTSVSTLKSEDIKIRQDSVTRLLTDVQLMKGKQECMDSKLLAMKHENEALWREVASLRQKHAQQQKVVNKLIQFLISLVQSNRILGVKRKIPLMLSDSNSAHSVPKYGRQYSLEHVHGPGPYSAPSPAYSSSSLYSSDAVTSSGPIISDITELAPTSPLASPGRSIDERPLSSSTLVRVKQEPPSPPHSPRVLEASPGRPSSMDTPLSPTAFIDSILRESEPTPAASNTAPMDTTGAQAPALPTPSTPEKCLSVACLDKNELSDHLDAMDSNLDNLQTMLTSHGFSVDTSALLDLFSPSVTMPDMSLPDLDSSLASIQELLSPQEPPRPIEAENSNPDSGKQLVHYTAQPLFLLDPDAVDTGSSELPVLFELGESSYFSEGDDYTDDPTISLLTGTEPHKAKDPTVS

[4] = molecular target: G-protein coupled receptor 55 (Homo sapiens, UniProt Q9Y2T6); assay: selective activators of receptor GPR55 – imaging, U2OS cells, beta-arrestin-GFP redistribution, primary screen (AID 1961); assay type: functional
[5] = Luminescence Cell-Based Dose Retest to Confirm Inhibitors of Cancer Stem Cells. [Related pubchem assays (depositor defined):AID2717, AID2721]; assay type: functional; conditions: Homo sapiens
[6] = activation of miR-122 Renilla sensor silencing – cell-based, Huh7 psiCHECK-miR122, Renilla luciferase, cherry-picked, dose response (AID 651956); assay type: functional;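 also: huh7 hepatoma cells stably carrying a psiCHECK-2 miR-122 sensor plasmid; renilla luciferase signal reporting endogenous miR-122 activity after 48 h compound exposure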
[7] = general mammalian cell viability loss – inhibitor set, cherry-pick, set 2, cytotoxicity control for miR-122 modulator project, dose response (AID 720697); assay type: functional, cell-based
[8] = general mammalian cell viability loss – activator set, cherry-pick, cytotoxicity control for miR-122 modulator project, dose response (AID 720690); assay type: functional, cell-based;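 also: HEK293T human cells scored for general mammalian cytotoxicity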
[9] = molecular target: T4, RNA-editing ligase 1, mitochondrial (Trypanosoma brucei brucei, UniProt P86926); assay: inhibition of trypanosome RNA editing ligase – biochemical, fluorescence, Trypanosoma brucei, dose response (AID 1117295); assay type: functional
T4 sequence (P86926 whole entry): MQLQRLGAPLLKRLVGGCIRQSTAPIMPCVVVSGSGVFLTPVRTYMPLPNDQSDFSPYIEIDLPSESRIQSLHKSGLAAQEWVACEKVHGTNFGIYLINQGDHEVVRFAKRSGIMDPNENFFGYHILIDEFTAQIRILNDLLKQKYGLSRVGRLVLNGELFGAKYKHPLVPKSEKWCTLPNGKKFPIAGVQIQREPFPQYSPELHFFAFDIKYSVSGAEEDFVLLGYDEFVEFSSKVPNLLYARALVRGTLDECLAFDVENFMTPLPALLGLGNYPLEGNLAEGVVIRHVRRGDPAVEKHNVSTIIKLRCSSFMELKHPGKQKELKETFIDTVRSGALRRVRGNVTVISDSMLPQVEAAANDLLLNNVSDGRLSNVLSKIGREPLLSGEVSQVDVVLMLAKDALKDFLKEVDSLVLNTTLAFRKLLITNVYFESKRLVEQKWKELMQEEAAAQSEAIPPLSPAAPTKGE

[10] = molecular target: T5, Methionyl-tRNA synthetase, putative (Trypanosoma brucei brucei, UniProt Q38C91); assay type: functional, Trypanosoma brucei brucei strain 927/4 GUTat10.1
T5 sequence (Q38C91 whole entry): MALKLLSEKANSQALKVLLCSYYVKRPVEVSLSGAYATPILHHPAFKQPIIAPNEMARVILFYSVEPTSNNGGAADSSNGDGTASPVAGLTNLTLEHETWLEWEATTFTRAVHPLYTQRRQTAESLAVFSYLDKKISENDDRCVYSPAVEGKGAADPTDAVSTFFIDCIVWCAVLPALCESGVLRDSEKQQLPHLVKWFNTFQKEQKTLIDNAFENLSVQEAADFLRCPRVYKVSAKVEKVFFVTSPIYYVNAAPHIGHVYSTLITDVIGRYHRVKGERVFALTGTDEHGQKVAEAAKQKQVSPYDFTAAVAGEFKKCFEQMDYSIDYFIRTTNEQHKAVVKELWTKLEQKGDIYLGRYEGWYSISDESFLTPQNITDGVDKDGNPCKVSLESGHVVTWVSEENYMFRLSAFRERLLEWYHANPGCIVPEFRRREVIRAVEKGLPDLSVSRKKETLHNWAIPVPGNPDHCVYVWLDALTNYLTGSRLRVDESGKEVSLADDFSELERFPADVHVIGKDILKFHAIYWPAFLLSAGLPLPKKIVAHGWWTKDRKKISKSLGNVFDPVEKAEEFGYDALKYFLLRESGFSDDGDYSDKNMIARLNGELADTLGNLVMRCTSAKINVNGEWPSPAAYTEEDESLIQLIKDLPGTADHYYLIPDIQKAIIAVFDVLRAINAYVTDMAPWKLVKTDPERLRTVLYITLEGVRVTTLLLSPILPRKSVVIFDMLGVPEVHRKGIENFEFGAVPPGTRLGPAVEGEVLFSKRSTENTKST

[11] = Counterscreen for inhibitors of Trypanosoma brucei methionyl tRNA synthetase (MetRS): Luminescence-based cell-based high throughput dose response assay to identify compounds that are cytotoxic to Jurkat human T lymphocyte cells.; assay type: functional
[12] = molecular target: T5, Methionyl-tRNA synthetase, putative; assay type: functional, Trypanosoma brucei brucei strain 927/4 GUTat10.1; remark: listed apart in the source
[13] = viability loss in HepG2 liver cells – cell-based, ATP luminescence, cherry-pick, set 6, cytotoxicity control, dose response (AID 1053125); assay type: functional
cells [14] = conditions: A549
cells [15] = conditions: HEK293
[16] = luciferase reporter signal suppression in cells – H4 neuroglioma cells, luminescence, dose response (AID 1990); assay type: functional, cell-based
[17] = Luminescence Cell-Based Dose Response HTS to Identify Inhibitors of 5'UTR Stem-Loop Driven Prion Protein mRNA Translation in H4 Neuroglioblastoma Cells. [Related pubchem assays: 1827 (Project Summary), 1813 (Primary HTS)]; assay type: functional
[18] = alpha-synuclein stem-loop luciferase translation blockers – H4 neuroglioma cells, luminescence, confirmation (AID 1988); assay type: functional, cell-based
[19] = molecular target: T6, Mannose-6-phosphate isomerase (Homo sapiens, UniProt P34949); assay: MPI enzyme activity inhibition – biochemical, fluorescence intensity, coupled assay, primary screen (AID 1209)
T6 sequence (P34949 whole entry): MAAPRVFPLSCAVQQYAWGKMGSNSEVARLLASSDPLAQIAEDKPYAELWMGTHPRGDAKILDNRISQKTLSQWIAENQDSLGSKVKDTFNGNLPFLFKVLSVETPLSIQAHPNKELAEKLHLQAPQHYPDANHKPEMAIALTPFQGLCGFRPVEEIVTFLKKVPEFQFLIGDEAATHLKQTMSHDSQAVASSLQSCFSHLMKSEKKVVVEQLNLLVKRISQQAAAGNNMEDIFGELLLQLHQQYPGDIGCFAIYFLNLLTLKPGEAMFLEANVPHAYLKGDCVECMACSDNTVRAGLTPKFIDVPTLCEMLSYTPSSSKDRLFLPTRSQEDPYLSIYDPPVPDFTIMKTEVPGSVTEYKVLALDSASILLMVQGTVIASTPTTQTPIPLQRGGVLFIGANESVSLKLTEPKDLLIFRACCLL

Genome polyprotein = Genome polyprotein (dengue virus type 2, UniProt P29990); assay: flavivirus cap methylation enzyme inhibition – biochemical, confirmation dose response, primary screen (AID 588689); assay type: functional
[20] = toxicity toward HepG2 hepatoma cells – cell-based, dry powder samples, cytotoxicity control, dose response (AID 720568); assay type: functional
HEK293 = assay: EBV LMP1 TES2 canonical NF-kB signalling blockers – cell-based, HEK293, luciferase, cherry-pick, dose response (AID 588343); assay type: functional; conditions: Homo sapiens
cells [21] = assay type: functional, cell-based
[22] = molecular target: T7, Nuclear receptor subfamily 0 group B member 1 (Homo sapiens, UniProt P51843); assay type: functional, cell-based;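 also: HEK293T cells transfected with SF-1 and DAX-1 plus StAR promoter luciferase reporter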
T7 sequence (P51843 whole entry): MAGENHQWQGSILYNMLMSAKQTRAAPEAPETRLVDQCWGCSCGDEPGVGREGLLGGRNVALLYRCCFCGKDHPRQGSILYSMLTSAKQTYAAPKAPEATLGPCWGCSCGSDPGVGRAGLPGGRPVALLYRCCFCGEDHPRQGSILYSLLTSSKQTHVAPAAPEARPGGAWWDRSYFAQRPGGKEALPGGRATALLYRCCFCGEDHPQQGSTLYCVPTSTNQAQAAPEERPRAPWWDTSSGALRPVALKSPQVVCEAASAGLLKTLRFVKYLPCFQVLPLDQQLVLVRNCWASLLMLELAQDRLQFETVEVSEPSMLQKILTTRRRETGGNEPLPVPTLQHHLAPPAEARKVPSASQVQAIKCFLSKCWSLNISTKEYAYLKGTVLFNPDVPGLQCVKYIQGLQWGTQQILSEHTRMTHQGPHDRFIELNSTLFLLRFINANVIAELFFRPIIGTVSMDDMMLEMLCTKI

[23] = HeLa cell viability loss – plate reader, dry powder, cytotoxicity control, dose response (AID 651946); assay type: functional, cell-based

Sequence of Genome polyprotein (P29990 2492-3391 limits assumed): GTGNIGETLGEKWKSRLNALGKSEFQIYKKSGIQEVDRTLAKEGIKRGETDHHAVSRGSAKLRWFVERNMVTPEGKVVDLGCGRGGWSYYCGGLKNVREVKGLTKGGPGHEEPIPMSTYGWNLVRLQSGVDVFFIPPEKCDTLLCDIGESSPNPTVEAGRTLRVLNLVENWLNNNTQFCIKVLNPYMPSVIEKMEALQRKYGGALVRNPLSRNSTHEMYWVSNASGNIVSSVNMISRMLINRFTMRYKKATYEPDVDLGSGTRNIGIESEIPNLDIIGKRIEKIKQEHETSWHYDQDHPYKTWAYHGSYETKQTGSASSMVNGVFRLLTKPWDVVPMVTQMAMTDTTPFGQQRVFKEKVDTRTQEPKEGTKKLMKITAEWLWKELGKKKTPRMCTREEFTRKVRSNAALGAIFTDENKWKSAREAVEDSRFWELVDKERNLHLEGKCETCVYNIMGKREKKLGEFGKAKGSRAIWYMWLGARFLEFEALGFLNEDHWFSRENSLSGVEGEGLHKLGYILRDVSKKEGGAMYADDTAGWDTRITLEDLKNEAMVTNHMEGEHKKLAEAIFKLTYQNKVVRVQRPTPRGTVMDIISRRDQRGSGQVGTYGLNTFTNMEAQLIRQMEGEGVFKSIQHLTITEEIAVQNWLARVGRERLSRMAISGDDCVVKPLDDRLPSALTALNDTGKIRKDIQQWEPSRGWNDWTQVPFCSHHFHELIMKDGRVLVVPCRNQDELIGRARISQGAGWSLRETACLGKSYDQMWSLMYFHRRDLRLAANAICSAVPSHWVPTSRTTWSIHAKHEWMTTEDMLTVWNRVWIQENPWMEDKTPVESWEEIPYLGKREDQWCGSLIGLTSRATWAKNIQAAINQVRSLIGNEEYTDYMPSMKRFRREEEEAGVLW
Sequence of G-protein coupled receptor 55 (Q9Y2T6 whole entry): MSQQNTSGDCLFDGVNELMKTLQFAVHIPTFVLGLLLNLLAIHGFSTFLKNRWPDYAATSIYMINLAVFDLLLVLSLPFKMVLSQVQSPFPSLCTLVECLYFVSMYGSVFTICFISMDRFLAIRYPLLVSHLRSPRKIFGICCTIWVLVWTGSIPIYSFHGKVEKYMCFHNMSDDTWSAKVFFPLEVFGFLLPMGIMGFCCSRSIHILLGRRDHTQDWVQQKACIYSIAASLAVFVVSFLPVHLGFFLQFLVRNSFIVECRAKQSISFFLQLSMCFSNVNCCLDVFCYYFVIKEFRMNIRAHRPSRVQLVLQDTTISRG

## COc1cc2c(cc1OC)C(c1ccc(-c3ccc(Cl)c(Cl)c3)o1)=NCC2
[1]
  EC50: > 300 µM (inconclusive)
[2]
  EC50: > 300 µM (not active)
[3]
  EC50: > 195 µM (not active)
[4]
  EC50: > 32 µM (inactive)
[5]
  AC50: 4.34 µM (active)
[6]
  AC50: 25.7 µM (active)
[7]
  AC50: 8.91 µM (active)
[8]
  AC50: 9.82 µM (active)
[9]
  IC50: 35.8 µM (inactive)

## COC(=O)c1sc(-c2ccc(Cl)cc2)cc1NC(=O)COCC(=O)O
[10]
  IC50: 18.7 µM (inactive)
[11]
  IC50: 83.2 µM (inactive)
[12]
  IC50: 13.8 µM (inactive)

## N#CC1=C(N)Oc2cc(N)ccc2C1c1ccc(F)cc1F (stereo not given)
[13]
  AC50: 45.3 µM (active)
Cells [14]
  AC50: 31.8 µM (active)
Cells [15]
  AC50: > 52 µM (inactive)

## O=C1CCNc2cc3ccccc3cc21
[16]
  EC50: > 60 µM (not active)
[17]
  EC50: > 120 µM (not active)
[18]
  EC50: 5.91 µM (active)
[19]
  IC50: 23.2 µM (active)
Genome polyprotein
  IC50: > 100 µM (active)
[20]
  AC50: 5.57 µM (active)

## C(=Cc1nc2ccccc2o1)c1ccc2c(c1)OCO2
HEK293
  AC50: 2.91 µM (active)
Cells [21]
  IC50: > 67.6 µM (inactive)
[22]
  IC50: > 0.0927 µM (active)

## COCCOCCSc1nnc(-c2ccccc2)o1
[23]
  AC50: > 52 µM (inactive)
